Seven compounds from BindingDB's records for PubMed 1930610 (Eli Lilly, 1991) can be followed below.

Test [1] addresses 5-hydroxytryptamine 1D receptor (Bos taurus, UniProt Q8MI13).
Test [2] has as its target Beta-arrestin-2 (Bos taurus, UniProt P32120).
Test [3] deals with 5-hydroxytryptamine receptor 2A (Rattus norvegicus, UniProt P14842).
Test [4] addresses T1, 5-hydroxytryptamine receptor 1A (Rattus norvegicus, UniProt P19327).
T1 sequence (P19327 whole entry): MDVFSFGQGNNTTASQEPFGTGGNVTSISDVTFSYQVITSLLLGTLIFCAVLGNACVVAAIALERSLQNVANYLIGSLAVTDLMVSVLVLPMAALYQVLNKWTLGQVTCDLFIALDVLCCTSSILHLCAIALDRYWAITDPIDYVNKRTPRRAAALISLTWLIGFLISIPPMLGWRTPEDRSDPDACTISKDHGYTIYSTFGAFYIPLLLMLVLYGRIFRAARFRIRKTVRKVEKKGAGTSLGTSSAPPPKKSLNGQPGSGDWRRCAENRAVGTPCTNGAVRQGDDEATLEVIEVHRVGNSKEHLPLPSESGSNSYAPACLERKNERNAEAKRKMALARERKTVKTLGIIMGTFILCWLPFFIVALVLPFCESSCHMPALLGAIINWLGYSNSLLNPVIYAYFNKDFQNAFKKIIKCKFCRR

The target of test [5] is 5-hydroxytryptamine receptor 1B (Rattus norvegicus, UniProt P28564).
Test [6] concerns the target T2, 5-hydroxytryptamine receptor 3A (Rattus norvegicus, UniProt P35563).
T2 sequence (P35563 whole entry): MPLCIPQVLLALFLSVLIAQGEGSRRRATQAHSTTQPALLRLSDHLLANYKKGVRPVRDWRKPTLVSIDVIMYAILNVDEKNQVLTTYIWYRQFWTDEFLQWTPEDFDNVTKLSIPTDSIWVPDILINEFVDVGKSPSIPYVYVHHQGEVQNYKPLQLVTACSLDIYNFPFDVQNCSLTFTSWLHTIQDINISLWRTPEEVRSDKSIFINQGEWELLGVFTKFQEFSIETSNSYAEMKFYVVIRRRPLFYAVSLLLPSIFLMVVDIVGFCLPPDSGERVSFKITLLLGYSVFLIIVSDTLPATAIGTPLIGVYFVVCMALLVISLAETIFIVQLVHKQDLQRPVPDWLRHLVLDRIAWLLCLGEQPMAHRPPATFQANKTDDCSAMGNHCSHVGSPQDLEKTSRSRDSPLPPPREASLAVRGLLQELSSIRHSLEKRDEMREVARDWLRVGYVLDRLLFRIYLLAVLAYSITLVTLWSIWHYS

pKi: −log10 of the molar value. Structures can show the parent of a compound that is named as a salt.

Chain of Beta-arrestin-2 (P32120 whole entry): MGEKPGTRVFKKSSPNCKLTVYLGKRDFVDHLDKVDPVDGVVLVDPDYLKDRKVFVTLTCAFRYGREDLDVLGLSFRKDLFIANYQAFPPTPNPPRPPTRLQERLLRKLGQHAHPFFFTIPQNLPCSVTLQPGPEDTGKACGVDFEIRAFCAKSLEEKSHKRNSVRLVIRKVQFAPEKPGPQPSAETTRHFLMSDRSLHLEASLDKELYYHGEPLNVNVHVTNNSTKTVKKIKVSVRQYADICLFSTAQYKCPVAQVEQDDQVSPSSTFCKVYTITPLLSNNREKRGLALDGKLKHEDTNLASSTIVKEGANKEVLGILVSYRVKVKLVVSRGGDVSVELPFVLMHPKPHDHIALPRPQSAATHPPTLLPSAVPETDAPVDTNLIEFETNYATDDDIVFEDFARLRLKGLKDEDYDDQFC
Chain of 5-hydroxytryptamine 1D receptor (Q8MI13 whole entry): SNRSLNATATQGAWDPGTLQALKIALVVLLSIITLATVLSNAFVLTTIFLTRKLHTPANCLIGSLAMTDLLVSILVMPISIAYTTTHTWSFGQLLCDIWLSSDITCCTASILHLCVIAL
Chain of 5-hydroxytryptamine receptor 1B (P28564 whole entry): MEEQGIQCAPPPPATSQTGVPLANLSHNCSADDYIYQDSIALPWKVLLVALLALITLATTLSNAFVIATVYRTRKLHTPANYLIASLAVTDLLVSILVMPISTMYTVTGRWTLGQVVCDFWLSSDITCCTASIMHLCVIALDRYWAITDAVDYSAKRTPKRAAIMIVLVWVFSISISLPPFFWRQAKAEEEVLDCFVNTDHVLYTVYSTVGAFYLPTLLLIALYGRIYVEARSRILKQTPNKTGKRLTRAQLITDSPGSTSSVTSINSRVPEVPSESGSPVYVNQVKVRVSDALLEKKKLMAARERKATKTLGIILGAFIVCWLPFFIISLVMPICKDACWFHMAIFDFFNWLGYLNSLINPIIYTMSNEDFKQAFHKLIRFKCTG
Chain of 5-hydroxytryptamine receptor 2A (P14842 whole entry): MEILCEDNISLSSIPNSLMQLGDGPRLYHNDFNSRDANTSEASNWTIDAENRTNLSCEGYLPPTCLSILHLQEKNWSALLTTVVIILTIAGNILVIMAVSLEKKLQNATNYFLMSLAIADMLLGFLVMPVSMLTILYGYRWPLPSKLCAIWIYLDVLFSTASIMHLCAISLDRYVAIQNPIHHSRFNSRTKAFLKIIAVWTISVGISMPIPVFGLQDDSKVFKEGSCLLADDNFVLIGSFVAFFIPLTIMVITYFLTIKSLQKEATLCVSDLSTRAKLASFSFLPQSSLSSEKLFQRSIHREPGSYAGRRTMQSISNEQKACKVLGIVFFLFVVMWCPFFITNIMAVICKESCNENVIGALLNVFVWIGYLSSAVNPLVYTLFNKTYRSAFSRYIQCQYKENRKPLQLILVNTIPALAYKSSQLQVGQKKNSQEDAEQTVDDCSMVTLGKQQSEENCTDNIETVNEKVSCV

`CNCC[C@@H](Oc1ccc(C(F)(F)F)cc1)c1ccccc1` [Prozac]: the values for the pKi in test [1] and in test [2] were 5.37 and 6.57, respectively.

With `COc1ccc(OC[C@H]2CN(C)CC[C@@H]2c2ccccc2)cc1` [(3R,4S)-3-(4-Methoxy-phenoxymethyl)-1-methyl-4-phenyl-piperidine], the pKi – broadly, the Ki on a negative log10 scale, so that one unit is a factor of ten – in test [3] was 6.39; in test [4], 5.50; in test [1], 5.43; in test [5] it was 5.03; in test [2], 5.72; in test [6], less than 5.00.

For `CNCC[C@@H](Oc1ccc(C(F)(F)F)cc1)c1ccccc1` [Fluoxetine-R-(-)], the pKi in test [1] is less than 5.00; in test [2], 6.81.

In the case of `CNCC[C@@H](Oc1ccc(C(F)(F)F)cc1)c1ccccc1` [(3R)-N-methyl-3-phenyl-3-[4-(trifluoromethyl)phenoxy]propan-1-amine], the results for the pKi in test [1] and in test [2] were 5.41 and 5.44, respectively.

As to `Fc1ccc([C@@H]2CCNC[C@H]2COc2ccc3c(c2)OCO3)cc1` [PAROXETINE], the pKi in test [4] is less than 5.00; in test [1], 5.31; in test [5] it was less than 5.00; in test [2], less than 5.00; in test [6] it was 5.58.

As to `CN(C)CCCC1(c2ccc(F)cc2)OCc2cc(C#N)ccc21` (configuration not stated) [CITALOPRAM HYDROBROMIDE], the pKi was less than 5.00 in test [1], less than 5.00 in test [5], 5.48 in test [2] and less than 5.00 in test [6].

For `c1ccc2c(CCC3CCNCC3)c[nH]c2c1`, the pKi is 6.10 in test [3]; 5.04 in test [4]; 5.44 in test [1]; 5.35 in test [5]; 5.49 in test [2]; 5.49 in test [6].
